Here are results for 14 compounds from ChEMBL document CHEMBL1909574, “Acid mediated formation of an N-acyliminium ion from tubulysins: a new methodology for the synthesis of natural tubulysins and their analogs” (Bioorg Med Chem Lett, 2011).

SMILES strings stand for the structures.

In the first experiment the test system is KB. Description: Growth inhibition of human KB cells by [3H]thymidine incorporation assay. Format: functional, cell-based. The note with it: Homo sapiens, KB. (Dividing cells build labelled thymidine or BrdU into new DNA.)
Consider `CCCCSCN(C(=O)[C@@H](NC(=O)[C@H]1CCCCN1C)[C@@H](C)CC)[C@H](C[C@@H](OC(C)=O)c1nc(C(=O)N[C@@H](Cc2ccc(O)cc2)C[C@H](C)C(=O)O)cs1)C(C)C`, for which the IC50 is 0.7 nM.

Take `CCCCCSCN(C(=O)[C@@H](NC(=O)[C@H]1CCCCN1C)[C@@H](C)CC)[C@H](C[C@@H](OC(C)=O)c1nc(C(=O)N[C@@H](Cc2ccc(O)cc2)C[C@H](C)C(=O)O)cs1)C(C)C`: inhibition was half-maximal at 0.8 nM (IC50).

Compound `CC[C@H](C)[C@H](NC(=O)[C@H]1CCCCN1C)C(=O)N(CSCCO)[C@H](C[C@@H](OC(C)=O)c1nc(C(=O)N[C@@H](Cc2ccc(O)cc2)C[C@H](C)C(=O)O)cs1)C(C)C` returned an IC50 of 26 nM.

Compound `CC[C@H](C)[C@H](NC(=O)[C@H]1CCCCN1C)C(=O)N(COC)[C@H](C[C@@H](OC(C)=O)c1nc(C(=O)N[C@@H](Cc2ccc(O)cc2)C[C@H](C)C(=O)O)cs1)C(C)C` returned an IC50 of 9 nM.

For `CCCOCN(C(=O)[C@@H](NC(=O)[C@H]1CCCCN1C)[C@@H](C)CC)[C@H](C[C@@H](OC(C)=O)c1nc(C(=O)N[C@@H](Cc2ccc(O)cc2)C[C@H](C)C(=O)O)cs1)C(C)C`, the IC50 worked out at 1.4 nM.

Compound `CC[C@H](C)[C@H](NC(=O)[C@H]1CCCCN1C)C(=O)N(COCCC(C)C)[C@H](C[C@@H](OC(C)=O)c1nc(C(=O)N[C@@H](Cc2ccc(O)cc2)C[C@H](C)C(=O)O)cs1)C(C)C` returned an IC50 of 12 nM.

Compound `CC[C@H](C)[C@H](NC(=O)[C@H]1CCCCN1C)C(=O)N(COCCO)[C@H](C[C@@H](OC(C)=O)c1nc(C(=O)N[C@@H](Cc2ccc(O)cc2)C[C@H](C)C(=O)O)cs1)C(C)C` came in with an IC50 of 18 nM.

For the compound `CCSCN(C(=O)[C@@H](NC(=O)[C@H]1CCCCN1C)[C@@H](C)CC)[C@H](C[C@@H](OC(C)=O)c1nc(C(=O)N[C@@H](Cc2ccc(O)cc2)C[C@H](C)C(=O)O)cs1)C(C)C`, half-maximal inhibition (IC50) required 2 nM.

The compound `CCCSCN(C(=O)[C@@H](NC(=O)[C@H]1CCCCN1C)[C@@H](C)CC)[C@H](C[C@@H](OC(C)=O)c1nc(C(=O)N[C@@H](Cc2ccc(O)cc2)C[C@H](C)C(=O)O)cs1)C(C)C` gave an IC50 of 1.4 nM.

For `CC[C@H](C)[C@H](NC(=O)[C@H]1CCCCN1C)C(=O)N(CSCCS)[C@H](C[C@@H](OC(C)=O)c1nc(C(=O)N[C@@H](Cc2ccc(O)cc2)C[C@H](C)C(=O)O)cs1)C(C)C`, the IC50 turned out to be 26 nM.

For the compound `CC[C@H](C)[C@H](NC(=O)[C@H]1CCCCN1C)C(=O)N(CNC(=O)CC(C)C)[C@H](C[C@@H](OC(C)=O)c1nc(C(=O)N[C@@H](Cc2ccc(O)cc2)C[C@H](C)C(=O)O)cs1)C(C)C`, the concentration for half-maximal inhibition (IC50) amounted to 8 nM.

Turning to `C=CCCN(C(=O)[C@@H](NC(=O)[C@H]1CCCCN1C)[C@@H](C)CC)[C@H](C[C@@H](OC(C)=O)c1nc(C(=O)N[C@@H](Cc2ccc(O)cc2)C[C@H](C)C(=O)O)cs1)C(C)C`, the IC50 is 1.3 nM.

As for `CCCC(=O)OCN(C(=O)[C@@H](NC(=O)[C@H]1CCCCN1C)[C@@H](C)CC)[C@H](C[C@@H](OC(C)=O)c1nc(C(=O)N[C@@H](Cc2ccc(O)cc2)C[C@H](C)C(=O)O)cs1)C(C)C` [TUBULYSIN B], the IC50 worked out at 2 nM.

Staying with this experiment, now noted: kb.
For `CC[C@@H](C)[C@H](NC(=O)[C@H]1CCCCN1C)C(=O)N(COC(=O)CC(C)C)[C@H](C[C@@H](OC(C)=O)c1nc(C(=O)N[C@@H](Cc2ccc(O)cc2)C[C@H](C)C(=O)O)cs1)C(C)C` [TUBULYSIN A], the midpoint of inhibition, the IC50, lay at 1 nM.

As usually defined, the IC50 is the concentration that gives 50% inhibition. Higher therefore signals weaker potency in that assay.
